Several values for one entry are separate records, joined by “and”; a condition that tells them apart may be missing. Identical values can stand only once.
What was measured:
N[C@@H](Cc1ccccc1)C(=O)O = assay: Kinetic parameter (Km) determination, malachite green; assay type: biochemical, Plasmodium falciparum; conditions: other: PfcFRS mutant (L550V); ATP saturating 500 μM; pH 7.5; 37.0 °C
Protocol: (§1) In both cases the reaction was carried out for 2 h at 37 °C. Data were fitted to Michaelis–Menten equations using Prism graph 6.0 software.

parasite = test system: parasite; design: method as in PMID 27602946; conditions: increasing concentrations of L-Phe; cited from earlier work
[1] = test system: Plasmodium falciparum strain 3D7; assay: Parasite growth inhibition (drug susceptibility test, pLDH readout); assay type: cell-based; conditions: 3D7; for IC50: Plasmodium falciparum
Protocol: (§2) The cultivation of P. falciparum was conducted according to Trager’s method with some modification. Precisely, parasites were kept in culture flasks with RPMI1640 medium supplemented with 10% human plasma and 2% fresh human erythrocytes and incubated at 37 °C with the gas condition of 5% CO2 and 5% O2. The parasitemia (percentage of infected erythrocytes to total erythrocytes) were kept within 0.25–10%. Culture medium was replaced, and fresh erythrocytes were supplied every 2–3 days. Drug susceptibility test was conducted according to Desjardins’s method[18] with some modification. […] […] The plates were kept at 37 °C with the gas condition of 5% CO2 and 5% O2 for 72 h and then parasite growth was quantified with Makler’s method to detect plasmdoial lactate dehydrogenase[19] with some modification. Precisely, culture plates were kept in freezer overnight and then thawed at 37 °C to disrupt the erythrocytes and parasite cells. In the new 96-well titer plates, 100 μl of enzyme reaction solution (110 mM Li-lactate, 0.5 mM acetylpyridine-adenine dinucleotide, 50 mM Tris (pH 7.5), 10 mM EDTA, 50 mM KCl, and 15 g l^−1 PEG6000) and 20 µl of freeze-thaw culture were mixed in each well and then kept at room temperature for 30 min. The detection solution was prepared by mixing equal volume of 2 mg ml^−1 nitro blue tetrazolium and 0.1 mg ml^−1 phenazine ethosulfate and 20 µl of the solution was added to each well.

[2] = test system: Plasmodium falciparum strain K1; assay: microbe, parasite or virus in culture; assay type: cell-based; conditions: K1; for IC50: Plasmodium falciparum
Protocol: as §2

PfcFRS mutant (L550V) = assay: Kinetic parameter (Km) determination, malachite green; assay type: biochemical, Plasmodium falciparum; conditions: PfcFRS-L550V versus PfcFRS WT
Protocol: as §1

[3] = substrate: N[C@@H](Cc1ccccc1)C(=O)O; assay: as above; assay type: biochemical, Plasmodium falciparum; conditions: other: PfcFRS WT; ATP saturating 500 μM; pH 7.5; 37.0 °C
Protocol: as §1

[4] = target: the molecule itself; assay: crystal structure; PvcFRS with BRD1389 and Mg2+, space group P2(1)2(1)2, one αβ heterodimer per asymmetric unit, 3.0 Å
[5] = target: the molecule itself; assay: SEC; purified PvcFRS on a Superdex 200 analytical gel filtration column

PfcFRS mutant (L550V) (Plasmodium falciparum 3D7; L550V)
Km (N[C@@H](Cc1ccccc1)C(=O)O): 1.85 ± 0.84 µM

COc1ccc(NC(=O)N2CCCCN3[C@H](CN)[C@H](c4ccc(C#Cc5ccccc5)cc4)[C@@H]3C2)cc1 [BRD1095]
EC50 shift with L-Phe (parasite): higher EC50 values with increasing concentrations of L-Phe

C[C@@H]1CC[C@H]2[C@@H](C)C(=O)O[C@@H]3O[C@@]4(C)CC[C@@H]1[C@]32OO4 [Artemisinin, artemisinin]
% Parasite Growth ([1]; 0.000195313 ug/mL): 91.8%
% Parasite Growth ([1]; 0.000390625 ug/mL): 88.1%
% Parasite Growth ([1]; 0.00078125 ug/mL): 90.1%
% Parasite Growth ([1]; 0.0015625 ug/mL): 91.8%
% Parasite Growth ([1]; 0.003125 ug/mL): 91.0%
% Parasite Growth ([1]; 0.00625 ug/mL): 92.6%
% Parasite Growth ([1]; 0.0125 ug/mL): 61.0%
% Parasite Growth ([1]; 0.025 ug/mL): 3.0%
% Parasite Growth ([1]; 0.05 ug/mL): 2.5%
% Parasite Growth ([1]; 0.1 ug/mL): 2.3%
% Parasite Growth ([1]; 0.2 ug/mL): 2.8%
IC50 [1]: 0.0143 µg/mL and 50.5 nM
% Parasite Growth ([2]; 0.000195313 ug/mL): 95.0%
% Parasite Growth ([2]; 0.000390625 ug/mL): 92.3%
% Parasite Growth ([2]; 0.00078125 ug/mL): 92.8%
% Parasite Growth ([2]; 0.0015625 ug/mL): 94.4%
% Parasite Growth ([2]; 0.003125 ug/mL): 92.0%
% Parasite Growth ([2]; 0.00625 ug/mL): 76.5%
% Parasite Growth ([2]; 0.0125 ug/mL): 6.1%
% Parasite Growth ([2]; 0.025 ug/mL): 2.9%
% Parasite Growth ([2]; 0.05 ug/mL): 3.5%
% Parasite Growth ([2]; 0.1 ug/mL): 3.3%
% Parasite Growth ([2]; 0.2 ug/mL): 3.6%
IC50 [2]: 0.00811 µg/mL and 28.7 nM

N[C@@H](Cc1ccccc1)C(=O)O [L-Phe, L-phenylalanine]
increase in Km value for L-Phe, mutant vs WT (PfcFRS mutant (L550V)): 10 fold and ~ 10 fold

CCN(CC)CCCC(C)Nc1ccnc2cc(Cl)ccc12 (centres unmarked) [Chloroquine, chloroquine]
IC50 [1]: 0.00914 µg/mL and 17.7 nM
IC50 [2]: 0.139 µg/mL and 269 nM

B1: PfcFRS wild type (WT) (Plasmodium falciparum 3D7) (protein)
chain: MSTNNVEEKKNEELYNLLNILEEEFNLSKIENKNNNKNDDGDDDDVNKREDNNNNEYYKKLKDEKGLDVLINEYTTSLKISKKYNIDHNKVMGMIKKLETLYYIINLIKSFNTYHLSDEGKQYLKEGSPEFIVIKYVIQNNKCTLEDLKKNLGKIGDIGLNTNLKNRTIQLNKADKCLTCNCNLHDIQDFTQIYLDIINQYGHDEELLFAHLKNKNHTKNALNNNEMKNSCKDNNIINNLIQDLKKRKLLEIKKNSYSHVIKTSIFKKDIKKQITDINYLLLKNEEYKKYDIKKYNFFSSGKKINKGNIHLLTKQMRTFKEIFFSLGFEEMETHNYVESSFWCFDALYIPQQHPSRDLQDTFFIKEPETCIDKFVDTEYIDNIKRVHTHGDYGSFGWNYKWKLEESKKNVLRTHTTANSCRALFKLAKEYKEAGCIKPKKYFSIDRVFRNENLDSTHLAEFHQVEGLIIDKNIGLSHLIGTLAAFYKHIGIHKLKFKPTFNPYTEPSMEIYGYHEQSKKWLEVGNSGIFRPEMLRSMGFSEEVSVIAWGLSLERPTMIKYNIKNIRDLFGYKSVV
Km [3]: 0.25 ± 0.017 µM

B2: PvcFRS αβ heterodimer as in the crystal (alpha subunit without residues 1-270) (complex, Plasmodium vivax)
chain 1: LTYLLIKNEEYKKYQVKKYNFFSSGKKMNKGNIHLLIRQMRTFKDVFVSLGFEEMNTHNYVESSFWCFDALYIPQQHPSRDLQDTFFIKVPEMCQEEFTDQSYIENVKRVHSVGDYGSFGWNYQWELKSTKKNVLRTHTTANSCRALFQLAKEYQKTGSIIPKKFFSIDRVFRNENLDSTHLAEFHQVEGLIIDRNLGLSHLIGTLSAFYKYIGISKLRFKPTFNPYTEPSMEVYGYHEENKKWLEVGNSGIFRPEMLRAMGFPPEVSVIAWGLSLERPTMIKYSIRNIRDLFGYRSVI
chain 2: MPTISVHEEDLIEKLGEKIEEEKLNDICFEFGIEIDDVEYKGEKKIYKIEVPANRYDLVCVEGLCRALKSFIGKYENVSYALLTNSEEACVKEKHFMRVDESVDERRSYVVSAVLKNVKMNENVYNNIIELQEKLHHNLGKKRILLAIGIHDYDKINFPVAYKFEEKEKINFIPLNETQNVNGNNFINFYQDNINLKSYLKIISDFEKFPVIVDAGGQILSLPPIINCDYTKITYDTRNLFIECTAIDRNKAEIAVNIICSMLSEYCTPKYSIHSFFVQYDKNHKAEKGNGYLYPVFKNKTLTCHMDYVRKLSGILNLSVKDVEPLLKKMMITSKVIDSSTFTVDVPFYRSDIMHFCDIVEDIAIAYGYGNIVSEKIEIAKKNSLSACTELFRNVLAECTYTEVMTNALLSKRENYDCMLRKHRSYDDRKINLDEYNPLAPPVQIMNSKTSEYEIVRTSLIVNMLKFVSANKHRELPLRFFEIGDVSYTTYDRTDTNAVNKRYLSVIFADKFTAGLEEAHGMLETVLKEFQLFSDYKIEEKSKENVAIRSDVFYKLVPKEDPSFLNERVVDIVLCPHNLKFGIMGIIHPKVLENFSIDIPVSVIEINIETIMDVLMM
notes: PvcFRS alpha subunit, Plasmodium vivax, gene PVX_081300; N-terminal domain (residues 1-270) absent in the crystal; PvcFRS beta subunit, Plasmodium vivax, gene PVX_090880, full length; also called heterodimer (αβ); PvcFRS-BRD1389 complex; source: E. coli B834, both subunits co-expressed, purified (Ni-NTA, heparin); crystallised with BRD1389 and MgCl2
binding result [4]: binds

B3: PvcFRS αβ heterodimer (full-length subunits) (complex, Plasmodium vivax)
chain 1: MQAKAQEEQKGEELSQFLQALEEEFALCQEGGGDKREADGPSLENAEAEELANRRAYYLQLKEERNVLVEESKHVTSLHMSSKHNIEHAKVLGMAKKLETLYYVVNHVRSFNTYQLTEEGKEYLRDGSPEHVTLRYVMEQEGCTLEDLKKLFGKKGEIGLNINLKKKKIELRKSDKRLFPHVEGSAHSLVDETRCYLQKVEAHGNDEGALVSHLKGILPPEKGEKKEEDEANNLIKELKKRKLIEAKKISYIYIIRTNLFTKEIKKQITDLTYLLIKNEEYKKYQVKKYNFFSSGKKMNKGNIHLLIRQMRTFKDVFVSLGFEEMNTHNYVESSFWCFDALYIPQQHPSRDLQDTFFIKVPEMCQEEFTDQSYIENVKRVHSVGDYGSFGWNYQWELKSTKKNVLRTHTTANSCRALFQLAKEYQKTGSIIPKKFFSIDRVFRNENLDSTHLAEFHQVEGLIIDRNLGLSHLIGTLSAFYKYIGISKLRFKPTFNPYTEPSMEVYGYHEENKKWLEVGNSGIFRPEMLRAMGFPPEVSVIAWGLSLERPTMIKYSIRNIRDLFGYRSVI
chain 2: B2 chain 2
notes: PvcFRS alpha subunit, Plasmodium vivax, gene PVX_081300, full length; PvcFRS beta subunit, Plasmodium vivax, gene PVX_090880, full length; The heterodimer that pairs with itself to the (αβ)2 heterotetramer in solution; also called heterodimer (αβ); source: E. coli B834, both subunits co-expressed, purified (Ni-NTA, heparin)
stoichiometry N [5]: 2

From paper PMC7803973, “Structural basis of malaria parasite phenylalanine tRNA-synthetase inhibition by bicyclic azetidines” (Nature Communications, 2021)
